From US4782073A, “Amides of [(5,6-dichloro-3-oxo-9-alpha-substituted-2,3,9,9-alpha-tetrahydrofluoren -7-yl-oxyl]acetic acids, and pharmaceutical compositions thereof” (Merck & Co., Inc., priority 1986, dated 1988)

Key:
pKa = type: physicochemical; details: read-out: pV-a
[1] = Protein binding (bovine serum albumin); type: in vitro ADME; details: 4 × 10^-4 M bovine serum albumin
Description: b. % Bound using 4 × 10^-4 M bovine serum albumin.

[2] = test system: cat cerebrocortical tissue slices; experiment: in vitro cat cerebrocortical tissue slice assay (inhibition of HCO3- stimulated swelling); type: cell-based; details: Felis catus, 1 h, compounds dissolved as sodium salts, 60 min incubation at 37° C, read-out: I50, concentration giving 50% inhibition of swelling
Description: The (1) in vitro cat cerebrocortical tissue slice assay, (2) the in vitro primary rat astrocyte culture assay and (3) the in vivo cat head injury assay. The first assay, the in vitro cat cerebrocortical tissue slice assay has been described by Marshall, L. F.; Shapiro, H. M.; Smith, R. W. In "Seminars in Neurological Surgery: Neural Trauma"; Popp, A. J.; Bourke, R. S.; Nelson, L. R.; Kimelberg, H, K,. Eds.; Raven Press: New York, 1979; p 347, by Bourke, R. S.; Kimelberg, H, K.; Daze, M. A. in Brain Res. 1978, 154, 196, and by Bourke, R. S.; Kimelberg, H. K,; Nelson, L. R. in Brain Res. 1976, 105, 309. This method constitutes a rapid and accurate method of determining the intrinsic chloride inhibitory properties of the compounds of the invention in the target tissue.
Using the in vitro cat cerebrocortical tissue slice assay, described in Example 1, compounds of the present invention can be tested for activity. This test provides the principal in vitro evaluation and consists of a determination of concentration vs. response curve. […]
Following the 60 minute incubation period, tissue slices were separated from incubation medium by filtration, reweighed, and homogenized in 1 N HClO4 (10% w/v) for electrolyte analysis. […] Control slice swelling is expressed as microliters per gram initial preswelling fresh weight. […]

[3] = Distribution between octanol and aqueous buffer at pH 7.4; type: physicochemical
Protocol: a. Distribution between octanol and aqueous buffer at pH = 7.4 were
determined as described by R. A. Sherrer and S. M. Howard, J. Med. Chem.

astroglial edema = details: in vitro assay, J. Med. Chem. 25, 567 (1982); cited from earlier work
[4] = test system: clinical cases of head injury; details: J. Med. Chem. 25, 567 (1982); cited from earlier work
[5] = test system: animals receiving experimental in vivo head injury; details: in vivo head injury assay, J. Med. Chem. 25, 567 (1982); cited from earlier work

CCC[C@]12CCC(=O)C=C1c1c(cc(OCC(=O)NS(C)(=O)=O)c(Cl)c1Cl)C2 [Example 4, R(+)-N-Methylsulfonyl-[(5,6-dichloro-3-oxo-9a-propyl-2,3,9,9a-tetrahydro-1H-fluoren-7-yl)oxy]acetamide]
pKa (pKa): 4.25
fraction unbound [1]: 0.028
IC50 [2]: 0.02 µM
logD [3]: 1.97

CCC[C@]12CCC(=O)C=C1c1c(cc(OCC(=O)N[C@@H](Cc3ccccc3)C(=O)O)c(Cl)c1Cl)C2
pKa (pKa): 4.58
fraction unbound [1]: 0.057
logD [3]: 2

CCC[C@]12CCC(=O)C=C1c1c(cc(OCC(=O)N[C@H](C(=O)O)C(C)C)c(Cl)c1Cl)C2
pKa (pKa): 4.6
fraction unbound [1]: 0.03
logD [3]: 2

CCC[C@]12CCC(=O)C=C1c1c(cc(OCC(=O)Nc3nnn[nH]3)c(Cl)c1Cl)C2
pKa (pKa): 3.78
fraction unbound [1]: 0.019
logD [3]: 1.96

CCC[C@]12CCC(=O)C=C1c1c(cc(OCC(=O)N[C@@H](Cc3ccc(O)cc3)C(=O)O)c(Cl)c1Cl)C2
pKa (pKa): 4.12
fraction unbound [1]: 0.022
logD [3]: 1.99

CCC[C@]12CCC(=O)C=C1c1c(cc(OCC(=O)N[C@@H](Cc3c[nH]cn3)C(=O)O)c(Cl)c1Cl)C2
pKa (pKa): 6.9
fraction unbound [1]: 0.079
logD [3]: 1.95

CCC[C@]12CCC(=O)C=C1c1c(cc(OCC(=O)N[C@@H](CO)C(=O)O)c(Cl)c1Cl)C2
pKa (pKa): 4.1
fraction unbound [1]: 0.024
logD [3]: 1.91

C=C(CC)C(=O)c1ccc(OCC(=O)O)c(Cl)c1Cl [ethacrynic acid]
activity in vitro (astroglial edema): exhibited activity
reduction of mortality in clinical cases of head injury [4]: effective in reducing mortality
activity in vivo [5]: exhibited activity

CCC[C@]12CCC(=O)C=C1c1c(cc(OCC(=O)NC#N)c(Cl)c1Cl)C2 [Example 5, R(+)-N-Cyano-[(5,6-dichloro-3-oxo-9a-propyl-2,3,9,9a-tetrahydro-1H-fluoren-77-yl)oxy]acetamide]
pKa (pKa): 3.65
fraction unbound [1]: 0.016
logD [3]: 1.99

CCC[C@]12CCC(=O)C=C1c1c(cc(OCC(=O)NS(=O)(=O)CC)c(Cl)c1Cl)C2 [SO2 C2 H5]
pKa (pKa): 4.1
IC50 [2]: 0.01 µM
logD [3]: 1.99
